Patent US11752138B2 (VANDERBILT UNIVERSITY, priority 2020, dated 2023)
pIC50: −log10 of the molar value.

Test system: LDH
Experiment: LDH activity in mice liver lysates, rate of conversion of glyoxylate to oxalate (FIG. 2)
Assay type: in vivo
Settings: 5-10 mg/kg, oral daily dose for 5 days; liver harvested two hours after last dose; wild type and AGXT null mice
Method: FIG. 2. LDH activity as measured by the rate of conversion of glyoxylate (G) to oxalate (O) in mice livers. Wild type mice, closed circles; AGXT null mice; open squares. […] Liver was harvested from animals two hours after delivery of the last drug dose. Enzyme assays were performed with liver lysates in 0.1M Glycine-Sodium hydroxide buffer, pH 9.6, 20 mM glyoxylate, 3.25 mM NAD+, and the rate of increase in absorbance at 340 nm monitored at room temperature

| Structure (SMILES) | suppression of oxalate production in mice liver (LDH activity, glyoxylate to oxalate) |
| --- | --- |
| Cc1ccc(C#Cc2cccc(-c3nn(-c4nc(C(=O)O)co4)c(CC4CC4)c3Cc3ccc(S(N)(=O)=O)c(F)c3)c2)s1 [Compound 247, 2-(5-(cyclopropylmethyl)-4-(3-fluoro-4-sulfamoylbenzyl)-3-(3-((5-methylthiophen-2-yl)ethynyl)phenyl)-1H-pyrazol-1-yl)oxazole-4-carboxylic acid] | Maximal suppression of oxalate production |

Molecular target: Human LDHA (Homo sapiens (Human), UniProt P00338)
Experiment: human LDHA primary biochemical assay (Example 1)
Settings: biochemical LDHA inhibitory activity, assay of Example 1
Text: This example describes a human LDHA primary biochemical assay employed in the characterization of a compound of Formula I in an embodiment of the dislcosure.
Test compounds were placed in a Greiner Bio-One (Monroe, N.C.) 1536-well black solid bottom assay plate. 200 millimolar (mM) Tris HCl, pH 7.4, 100 micromolar (μM) EDTA and 0.01% TWEEN-20™, final concentration, was used as the assay buffer. The LDHA reagent was 2 nanomolar (nM) Human LDHA (Meridian Life Science, Inc., Memphis, Tenn.), final concentration, in assay buffer. The substrate reagent was 0.06 mM NADH and 0.2 mM sodium pyruvate, final concentration, in assay buffer. The resazurin/diaphorase coupling reagent was 0.037 mM resazurin and 0.133 milligrams per milliliter (mg/mL) diaphorase, final concentration, in assay buffer. The inhibition of LDHA activity was measured by fluorescence emission. […]

| Structure (SMILES) | pIC50 |
| --- | --- |
| Cc1ccc(C#Cc2cccc(-c3nn(-c4nc(C(=O)O)cs4)c(CCC4CC4)c3Cc3ccc(S(N)(=O)=O)c(F)c3)c2)o1 [Compound 232, 2-(5-(2-cyclopropylethyl)-4-(3-fluoro-4-sulfamoylbenzyl)-3-(3-((5-methylfuran-2-yl)ethynyl)phenyl)-1H-pyrazol-1-yl)thiazole-4-carboxylic acid] | > 7.00 |
| Cc1cnc(C#Cc2cccc(-c3nn(-c4nc(C(=O)O)cs4)c(CCC4CC4)c3Cc3ccc(S(N)(=O)=O)c(F)c3)c2)s1 [Compound 234, 2-(5-(2-cyclopropylethyl)-4-(3-fluoro-4-sulfamoylbenzyl)-3-(3-((5-methylthiazol-2-yl)ethynyl)phenyl)-1H-pyrazol-1-yl)thiazole-4-carboxylic acid] | > 7.00 |
| Cc1ncc(C#Cc2cccc(-c3nn(-c4nc(C(=O)O)cs4)c(CCC4CC4)c3Cc3ccc(S(N)(=O)=O)c(F)c3)c2)s1 [Compound 235, 2-(5-(2-cyclopropylethyl)-4-(3-fluoro-4-sulfamoylbenzyl)-3-(3-((2-methylthiazol-5-yl)ethynyl)phenyl)-1H-pyrazol-1-yl)thiazole-4-carboxylic acid] | > 7.00 |
| Cc1nc(C#Cc2cccc(-c3nn(-c4nc(C(=O)O)cs4)c(CC4CC4)c3Cc3ccc(S(N)(=O)=O)c(F)c3)c2)cs1 [Compound 236, 2-(5-(cyclopropylmethyl)-4-(3-fluoro-4-sulfamoylbenzyl)-3-(3-((2-methylthiazol-4-yl)ethynyl)phenyl)-1H-pyrazol-1-yl)thiazole-4-carboxylic acid] | > 7.00 |
| Cc1cc(C#Cc2cccc(-c3nn(-c4nc(C(=O)O)cs4)c(CC4CC4)c3Cc3ccc(S(N)(=O)=O)c(F)c3)c2)cs1 [Compound 240, 2-(5-(cyclopropylmethyl)-4-(3-fluoro-4-sulfamoylbenzyl)-3-(3-((5-methylthiophen-3-yl)ethynyl)phenyl)-1H-pyrazol-1-yl)thiazole-4-carboxylic acid] | > 7.00 |
| Cc1ccc(C(=O)Cc2cccc(-c3nn(-c4nc(C(=O)O)cs4)c(CC4CC4)c3Cc3ccc(S(N)(=O)=O)c(F)c3)c2)s1 [Compound 242, 2-(5-(cyclopropylmethyl)-4-(3-fluoro-4-sulfamoylbenzyl)-3-(3-(2-(5-methylthiophen-2-yl)-2-oxoethyl)phenyl)-1H-pyrazol-1-yl)thiazole-4-carboxylic acid] | > 7.00 |
| Cc1nc(C#Cc2cccc(-c3nn(-c4nc(C(=O)O)cs4)c(CCC4CC4)c3Cc3ccc(S(N)(=O)=O)c(F)c3)c2)cs1 [Compound 243, 2-(5-(2-cyclopropylethyl)-4-(3-fluoro-4-sulfamoylbenzyl)-3-(3-((2-methylthiazol-4-yl)ethynyl)phenyl)-1H-pyrazol-1-yl)thiazole-4-carboxylic acid] | > 7.00 |
| Cc1ccc(C#Cc2cccc(-c3nn(-c4nc(C(=O)O)co4)c(CC4CC4)c3Cc3ccc(S(N)(=O)=O)c(F)c3)c2)s1 [Compound 247, 2-(5-(cyclopropylmethyl)-4-(3-fluoro-4-sulfamoylbenzyl)-3-(3-((5-methylthiophen-2-yl)ethynyl)phenyl)-1H-pyrazol-1-yl)oxazole-4-carboxylic acid] | > 7.00 |
